According to US20230218548A1 (priority 2020, published 2023):
Like-named read-outs stand apart in the source and are kept apart here.

Experiments:
SARS-CoV-2 = test: microbe, parasite or virus in culture; assay type: cell-based, SARS-CoV-2 (USA-WA1/2020)
HeLa-ACE2 cells = assay type: cell-based; conditions: host cell toxicity, 24 h, read-out: HeLa-ACE2 EC50
Description: Compounds were prepared and plated in 384-well plates as for the infection assay. HeLa-ACE2 cells were seeded in the assay-ready plates at 1.6×10^3 cells/well in assay medium, and plates were incubated for 24 h at 37° C. with 5% CO2. To assess cell viability, the Image-IT DEAD green reagent (Thermo Fisher, 110291) was used according to manufacturer's instructions. Cells were fixed with 4% paraformaldehyde (PFA) and counterstained with DAPI. Fixed cells were imaged using the ImageXpress Micro Confocal High-Content Imaging System (Molecular Devices) with a 10x objective, and total live cells per well quantified in the acquired images using the Live Dead Application Module (MetaXpress).
The in vitro infection assay and the host cell cytotoxicity counterscreen data were uploaded to Genedata Screener, Version 16.0. Data were normalized to neutral (DMSO) […] inhibitor controls (2.5 μM remdesivir for antiviral effect, and 10 μM puromycin for infected host cell toxicity). For the uninfected host cell cytotoxicity counterscreen, 10 μM puromycin (Sigma) was used as a positive control. For dose-response experiments, compounds were tested in technical triplicates, and dose curves were fitted with the four parameter Hill Equation. Replicate data were analyzed using median condensing.

[1] = target: SARS-CoV-2 envelope (E) protein (Severe acute respiratory syndrome coronavirus 2, UniProt P0DTC4); assay type: cell-based
ACE2 = ACE2 (Homo sapiens, UniProt Q9BYF1); test: Mass spectrometry analysis of S-nitrosylated ACE2 protein; assay type: cell-based; conditions: after exposure to SNOC
Description: Biotin switch was performed as described above. […] The samples were desalted using a ZebaSpin desalting column (Thermo Scientific) pre-equilibrated with PBS, and biotinylated ACE2 protein was immunoprecipitated as described above. Immunoprecipitated ACE2 was eluted in 1% SDS solution and precipitated using methanol-chloroform. Dried pellets were dissolved in 8 M urea/100 mM triethylammonium bicarbonate (TEAB, pH 8.5). Samples were diluted to 2 M urea/100 mM TEAB, and proteins were trypsin digested overnight at 37° C. The digested ACE2 peptides were enriched a second time by biotin-avidin affinity to enrich biotinylated peptides representing the initial SNO sites. After avidin enrichment, peptides were eluted by reduction using tris(2-carboxyethyl)phosphine (TCEP).
Samples were analyzed on a Thermo Orbitrap Eclipse mass spectrometer (Thermo). Samples were injected directly onto a 25 cm, 100 μm ID column packed with ethylene bridged hybrid (BEH) 1.7 μm C18 resin (Waters). Samples were separated at a flow rate of 300 nl/min on a nLC 1200 (Thermo) using a gradient of solution A (0.1% formic acid in water, 5% acetonitrile) and solution B (80% acetonitrile/0.1% formic acid). Specifically, a gradient of 1-25% B over 100 min, an increase to 40% B over 20 min, an increase to 100% B over another 10 min and held at […] for a 10 min was used for a 140 min total run time. […]

[2] = Severe acute respiratory syndrome coronavirus 2, HeLa-ACE2, 24 h

ACE2, sequence (Q9BYF1 18-805): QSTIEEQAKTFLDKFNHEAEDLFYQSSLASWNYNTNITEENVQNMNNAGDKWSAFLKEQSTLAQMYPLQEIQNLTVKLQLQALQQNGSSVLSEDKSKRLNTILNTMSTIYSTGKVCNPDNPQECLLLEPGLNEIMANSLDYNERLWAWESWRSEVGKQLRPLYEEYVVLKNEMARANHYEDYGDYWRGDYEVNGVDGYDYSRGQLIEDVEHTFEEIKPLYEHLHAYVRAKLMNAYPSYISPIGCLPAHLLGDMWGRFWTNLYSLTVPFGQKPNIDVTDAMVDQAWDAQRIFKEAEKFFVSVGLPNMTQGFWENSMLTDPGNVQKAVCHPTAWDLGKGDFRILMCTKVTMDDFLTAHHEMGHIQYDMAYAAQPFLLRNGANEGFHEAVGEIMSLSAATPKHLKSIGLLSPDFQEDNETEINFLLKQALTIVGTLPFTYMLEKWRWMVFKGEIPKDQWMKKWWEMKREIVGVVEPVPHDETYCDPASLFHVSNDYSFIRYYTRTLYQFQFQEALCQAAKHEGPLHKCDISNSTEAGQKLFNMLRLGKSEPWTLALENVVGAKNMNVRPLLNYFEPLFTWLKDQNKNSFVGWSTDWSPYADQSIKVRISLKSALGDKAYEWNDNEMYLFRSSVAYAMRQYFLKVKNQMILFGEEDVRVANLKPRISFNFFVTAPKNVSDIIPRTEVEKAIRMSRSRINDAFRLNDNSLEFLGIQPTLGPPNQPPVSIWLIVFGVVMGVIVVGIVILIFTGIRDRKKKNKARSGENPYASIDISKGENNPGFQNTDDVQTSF
SARS-CoV-2 envelope (E) protein, sequence (P0DTC4 whole entry, looked up): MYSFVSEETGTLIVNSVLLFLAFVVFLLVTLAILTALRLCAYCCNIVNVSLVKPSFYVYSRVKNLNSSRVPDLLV

Structure (SMILES) | Selectivity Index CC50/EC50 (SARS-CoV-2) | EC50 (SARS-CoV-2; [2]) [µM] | CC50 (host cell cytotoxicity) (HeLa-ACE2 cells) [µM] | EC50 (SARS-CoV-2) [µM] | other results
CCC(CC)COC(=O)[C@H](C)N[P@](=O)(OC[C@H]1O[C@@](C#N)(c2ccc3c(N)ncnn23)[C@H](O)[C@@H]1O)Oc1ccccc1 [Remdesivir] | >16.94 | 0.142 |  |  | 
COc1ccc(C[C@H](N)C(=O)N[C@H]2[C@@H](O)[C@H](n3cnc4c(N(C)C)ncnc43)O[C@@H]2CO)cc1 [Puromycin] | 0.728 | 0.617 |  |  | 
CC12CC3(C)CC(CCN)(C1)CC(CO[N+](=O)[O-])(C2)C3 [NMT6] |  |  | 10.5 | 3.32 | 
CC12CC3CC(C)(C1)CC(N)(C3)C2 [NMT1, memantine] | 2.69 | 53.9 |  |  | Inhibition of E protein voltage-dependent K+ current [1]: inhibited in a dose-dependent manner
NCC1(c2cccc(O[N+](=O)[O-])c2)C2CC3CC(C2)CC1C3 (stereo not shown) [NMT7] |  |  | > 200 | 90.7 | 
CCC12CC3CC(N)(C1)CC(CO[N+](=O)[O-])(C3)C2 (stereo not shown) [NMT2] |  |  | 122 | 21.9 | 
CC12CC3(C)CC(CN)(C1)CC(O[N+](=O)[O-])(C2)C3 [NMT9] |  |  | > 200 | > 200 | 
CCC(O[N+](=O)[O-])C12CC3(C)CC(C)(CC(CCN)(C3)C1)C2 (stereo not shown) [NMT8] |  |  | 8.37 | 3.75 | 
NC12CC3CC(CC(C3)C1)C2 [NMT4, amantadine] | >2.86 | 70 |  |  | 
N[C@@H](CSN=O)C(=O)O [SNOC] |  |  |  |  | S-nitrosylated ACE2 sites by mass spectrometry (ACE2): S-nitrosylated ACE2 at Cys^261 and Cys^496
Cc1cccc(/C=N/Nc2cc(N3CCOCC3)nc(OCCc3ccccn3)n2)c1 [Apilimod] | >332.11 | 0.0072 |  |  | 
